In patent publication US11384159B2, “B-1,3-1,6-glucan powder, glucan-containing composition, method for producing B-1,3-1,6-glucan powder, inclusion complex, method for producing inclusion complex, and method for recovering guest molecule” (MITSUBISHI GAS CHEMICAL COMPANY, INC., priority 2017, dated 2022):

Test: Inclusion of poorly water-soluble substance (curcumin): absorbance of supernatant at 405 nm
Type: physicochemical
Details: 0.002 mol/L monomer glucose; curcumin in acetone, 1 vol. % acetone; 3 hours, 25° C.; after centrifugation
Text: In order to examine the change in characteristics of centrifugally regenerated β-1,3-1,6-glucan in association with powder formation, the envelopment and solubilizing capacity of the centrifugally regenerated β-1,3-1,6-glucan with respect to poorly water-soluble substances were compared.
β-1,3-1,6-glucan (lyophilized) derived from Aureobasidium pullulans was used as the centrifugally regenerated β-1,3-1,6-glucan powder, and curcumin (available from Tokyo Chemical Industry Co., Ltd., catalog number: 00435) was used as the poorly water-soluble substance.
The centrifugally regenerated β-1,3-1,6-glucan powder was dissolved in distilled water at a concentration of 1.0% by mass, and the glucose concentration was calculated through the phenol-sulfuric acid method, after which the solution was diluted and used. […]
Each centrifugally regenerated β-1,3-1,6-glucan solution having a monomer glucose concentration adjusted to 0.002 mol/L was prepared at an amount of 1 mL each, and an acetone solution of curcumin adjusted to a concentration of 0.05 mol/L was added such that the final concentration of acetone was 1 vol. %. […] Centrifugation (KUBOTA3740 (available from Kubota Manufacturing Co., Ltd.), 14000 G, 5 minutes) was carried out, the insoluble matter was removed, and the absorbance of the supernatant at a wavelength of 405 nm was compared. […]

absorbance (wavelength of 405 nm) originating from the curcumin in the supernatant: 0.045
Compound: COc1cc(/C=C/C(=O)CC(=O)/C=C/c2ccc(O)c(OC)c2)ccc1O [curcumin]
